Measured values taken from article PMC9930818, “2-((1H-Benzo[d]imidazol-2-yl)amino)benzo[d]thiazole-6-sulphonamides: a class of carbonic anhydrase II and VII-selective inhibitors” (Journal of Enzyme Inhibition and Medicinal Chemistry, 2023).
Read-outs that look alike come from different tables or passages of the source.

Columns and labels:
Test in all cases: stopped-flow CO2 hydration assay
Assay type in all cases: biochemical
[1] = biological target: T1, hCA IV (Homo sapiens, UniProt P22748); settings: read-out: KI (nM)^a / hCA I
T1 construct: gene CA4; recombinant, obtained in-house as reported earlier
T1 sequence (P22748 19-284): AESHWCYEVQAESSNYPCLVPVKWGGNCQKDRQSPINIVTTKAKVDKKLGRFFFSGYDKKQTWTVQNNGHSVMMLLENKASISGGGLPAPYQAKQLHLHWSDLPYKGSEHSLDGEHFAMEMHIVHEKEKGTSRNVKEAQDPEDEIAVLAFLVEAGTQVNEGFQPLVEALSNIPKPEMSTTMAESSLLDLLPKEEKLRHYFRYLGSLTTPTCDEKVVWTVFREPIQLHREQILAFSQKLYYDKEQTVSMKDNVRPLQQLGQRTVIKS

[2] = biological target: T2, hCA VII (Homo sapiens, UniProt P43166); settings: read-out: KI (nM)^a / hCA I
T2 construct: gene CA7; recombinant, obtained in-house as reported earlier; cytosolic isoform
T2 sequence (P43166 whole entry, canonical isoform): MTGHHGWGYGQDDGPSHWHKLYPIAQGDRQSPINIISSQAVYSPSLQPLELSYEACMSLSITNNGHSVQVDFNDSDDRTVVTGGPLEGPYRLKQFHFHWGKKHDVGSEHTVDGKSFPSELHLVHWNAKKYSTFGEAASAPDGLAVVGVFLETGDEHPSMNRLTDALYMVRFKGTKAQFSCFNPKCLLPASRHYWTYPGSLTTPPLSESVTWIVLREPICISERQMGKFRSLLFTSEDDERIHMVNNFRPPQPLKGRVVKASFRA

[3] = biological target: T3, hCA II (Homo sapiens, UniProt P00918); settings: read-out: KI (nM)^a / hCA I
T3 construct: gene CA2; recombinant, obtained in-house as reported earlier; cytosolic isoform

[4] = biological target: T4, hCA I (Homo sapiens, UniProt P00915)
T4 construct: gene CA1; recombinant, obtained in-house as reported earlier; cytosolic isoform
T4 sequence (P00915 2-261): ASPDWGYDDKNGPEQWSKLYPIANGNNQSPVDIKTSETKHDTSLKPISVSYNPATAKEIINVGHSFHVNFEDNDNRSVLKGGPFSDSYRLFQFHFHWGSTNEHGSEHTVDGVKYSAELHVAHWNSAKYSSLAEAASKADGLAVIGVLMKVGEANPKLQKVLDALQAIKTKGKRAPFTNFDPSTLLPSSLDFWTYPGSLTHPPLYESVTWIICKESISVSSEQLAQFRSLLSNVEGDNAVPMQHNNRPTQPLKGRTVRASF
Source text: stopped-flow CO2 hydration assay on hCA I

[5] = biological target: T3, hCA II
Source text: stopped-flow CO2 hydration assay on hCA II

[6] = biological target: T1, hCA IV
Source text: stopped-flow CO2 hydration assay on hCA IV

[7] = biological target: T2, hCA VII
Source text: stopped-flow CO2 hydration assay on hCA VII

SMILES: O=S(=O)(Nc1nc2ccccc2[nH]1)c1ccc2nc(Nc3nc4ccccc4[nH]3)sc2c1 [9d]
- Ki [1]: > 100000 nM
- Ki [2]: > 100000 nM
- Ki [3]: > 100000 nM
- Ki [4]: > 100000 nM

SMILES: CC1CN=C(Nc2nc3ccc(S(N)(=O)=O)cc3s2)N1 (stereo not shown) [6b, 2-((5-Methyl-4,5-dihydro-1H-imidazol-2-yl)amino)benzo[d]thiazole-6-sulphonamide]
- Ki [5]: 48.1 nM
- Ki [6]: > 100000 nM
- Ki [4]: 568 nM
- Ki [7]: 37.4 nM

SMILES: CC1CN=C(Nc2nc3ccc(S(=O)(=O)NC4=NCC(C)N4)cc3s2)N1 (stereo not shown) [9b]
- Ki [1]: > 100000 nM
- Ki [2]: > 100000 nM
- Ki [3]: > 100000 nM
- Ki [4]: > 100000 nM

SMILES: O=S(=O)(NC1=NC2CCCCC2N1)c1ccc2nc(NC3=NC4CCCCC4N3)sc2c1 (stereo not shown) [9c, N-(3a,4,5,6,7,7a-hexahydro-1H-benzo[d]imidazol-2-yl)-2-((3a,4,5,6,7,7a-hexahydro-1H-benzo[d]imidazol-2-yl)amino)benzo[d]thiazole-6-sulphonamide]
- Ki [1]: > 100000 nM
- Ki [2]: > 100000 nM
- Ki [3]: > 100000 nM
- Ki [4]: > 100000 nM

SMILES: NS(=O)(=O)c1ccc2nc(NC3=NCCN3)sc2c1 [6a, 2-((4,5-Dihydro-1H-imidazol-2-yl)amino)benzo[d]thiazole-6-sulphonamide]
- Ki [5]: 37.6 nM
- Ki [6]: > 100000 nM
- Ki [4]: 422 nM
- Ki [7]: 56.3 nM

SMILES: NS(=O)(=O)c1ccc2nc(Nc3nc4ccccc4[nH]3)sc2c1 [7a, 2-((1H-benzo[d]imidazol-2-yl)amino)benzo[d]thiazole-6-sulphonamide]
- Ki [5]: 84 nM
- Ki [6]: > 100000 nM
- Ki [4]: 4930 nM
- Ki [7]: 66.9 nM

SMILES: O=S(=O)(NC1=NCCN1)c1ccc2nc(NC3=NCCN3)sc2c1 [9a, N-(4,5-Dihydro-1H-imidazol-2-yl)-2-((4,5-dihydro-1H-imidazol-2-yl)amino)benzo[d]thiazole-6-sulphonamide]
- Ki [1]: > 100000 nM
- Ki [2]: > 100000 nM
- Ki [3]: > 100000 nM
- Ki [4]: > 100000 nM

SMILES: NS(=O)(=O)c1ccc2nc(Nc3nc4ccc(C(F)(F)F)cc4[nH]3)sc2c1 [7b, 2-((6-(Trifluoromethyl)-1H-benzo[d]imidazol-2-yl)amino)benzo[d]thiazole-6-sulphonamide]
- Ki [5]: 375 nM
- Ki [6]: > 100000 nM
- Ki [4]: 8100 nM
- Ki [7]: 452 nM

SMILES: NS(=O)(=O)c1ccc2nc(Nc3nc4ccc(Cl)cc4[nH]3)sc2c1 [7c, 2-((6-Chloro-1H-benzo[d]imidazol-2-yl)amino)benzo[d]thiazole-6-sulphonamide]
- Ki [5]: 578 nM
- Ki [6]: > 100000 nM
- Ki [4]: 9530 nM
- Ki [7]: 694 nM

SMILES: NS(=O)(=O)c1ccc2nc(NC3=NC4CCCCC4N3)sc2c1 (stereo not shown) [6c, 2-((3a,4,5,6,7,7a-hexahydro-1H-benzo[d]imidazol-2-yl)amino)benzo[d]thiazole-6-sulphonamide]
- Ki [5]: 65.6 nM
- Ki [6]: > 100000 nM
- Ki [4]: 7590 nM
- Ki [7]: 82.5 nM
